# Assay results taken from US8710065B2, “Tricyclic inhibitors of kinases” (AbbVie Inc., priority 2011, dated 2014).
# Biological target: T1, GST-tagged-Wee1 kinase (Homo sapiens, UniProt P30291)
# T1 construct: purchased Carnabio (Carna Biosciences) 05-177
# Experiment: Wee1 time-resolved fluorescence equilibrium binding assay (displacement of Oregon Green-labeled ATP-competitive kinase probe)
# Conditions: read-out: Wee-1 inhibition (Ki)
# Summary of the method: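 Ki values derive from competitive displacement, under equilibrium, of a fast-reversible ATP-site Oregon Green kinase probe from GST-tagged Wee1, detected by time-resolved fluorescence.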
# T1 sequence (P30291 whole entry): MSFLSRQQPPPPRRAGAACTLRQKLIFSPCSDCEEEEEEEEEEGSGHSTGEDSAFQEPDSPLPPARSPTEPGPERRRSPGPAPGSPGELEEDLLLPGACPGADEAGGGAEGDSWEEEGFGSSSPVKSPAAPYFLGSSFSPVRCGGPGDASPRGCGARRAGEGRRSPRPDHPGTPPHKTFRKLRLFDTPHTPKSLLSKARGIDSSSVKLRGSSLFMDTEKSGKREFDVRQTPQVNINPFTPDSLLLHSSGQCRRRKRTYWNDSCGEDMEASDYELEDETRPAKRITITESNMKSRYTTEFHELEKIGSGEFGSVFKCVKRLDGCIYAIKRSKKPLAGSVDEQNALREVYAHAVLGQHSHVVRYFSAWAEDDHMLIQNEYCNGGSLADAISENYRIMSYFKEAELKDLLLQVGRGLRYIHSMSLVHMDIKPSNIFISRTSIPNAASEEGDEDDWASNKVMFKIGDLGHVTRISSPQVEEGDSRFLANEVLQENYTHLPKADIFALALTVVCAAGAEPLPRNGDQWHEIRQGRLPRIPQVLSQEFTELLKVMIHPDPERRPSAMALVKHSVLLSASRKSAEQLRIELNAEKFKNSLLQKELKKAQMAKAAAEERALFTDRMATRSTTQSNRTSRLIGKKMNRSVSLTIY
row,Structure (SMILES),Ki
1,"CS(=O)(=O)N1CCC(Nc2ccc(Nc3ncc4c(=O)n(-c5c(Cl)cccc5Cl)c5nccn5c4n3)cc2)CC1 [Example 322, 6-(2,6-dichlorophenyl)-2-[(4-{[1-(methylsulfonyl)piperidin-4-yl]amino}phenyl)amino]imidazo[1,2-a]pyrimido[5,4-e]pyrimidin-5(6H)-one]",< 10 nM
2,"CN1CCN(CCCOc2cccc(Nc3ncc4c(=O)n(-c5ccccc5Cl)c5nccn5c4n3)c2)CC1 [Example 82, 6-(2-chlorophenyl)-2-({3-[3-(4-methylpiperazin-1-yl)propoxy]phenyl}amino)imidazo[1,2-a]pyrimido[5,4-e]pyrimidin-5(6H)-one]",10 to 100 nM
3,"Cc1cc(Nc2ncc3c(=O)n(-c4c(Cl)cccc4Cl)c4nccn4c3n2)ccc1N1CCNCC1 [Example 110, 6-(2,6-dichlorophenyl)-2-{[3-methyl-4-(piperazin-1-yl)phenyl]amino}imidazo[1,2-a]pyrimido[5,4-e]pyrimidin-5(6H)-one]",< 10 nM
4,"CN1CCCc2ccc(Nc3ncc4c(=O)n(-c5ccccc5Cl)c5nccn5c4n3)cc21 [Example 18, 6-(2-chlorophenyl)-2-[(1-methyl-1,2,3,4-tetrahydroquinolin-7-yl)amino]imidazo[1,2-a]pyrimido[5,4-e]pyrimidin-5(6H)-one]",10 to 100 nM
5,"O=c1c2cnc(Nc3ccc(N4CC5(CCNCC5)C4)cc3)nc2n2ccnc2n1-c1c(Cl)cccc1Cl [Example 314, 2-{[4-(2,7-diazaspiro[3.5]non-2-yl)phenyl]amino}-6-(2,6-dichlorophenyl)imidazo[1,2-a]pyrimido[5,4-e]pyrimidin-5(6H)-one]",< 10 nM
6,"CN1CCN(CCc2ccc(Nc3ncc4c(=O)n(-c5c(Cl)cccc5Cl)c5nccn5c4n3)cc2)CC1 [Example 118, 6-(2,6-dichlorophenyl)-2-({4-[2-(4-methylpiperazin-1-yl)ethyl]phenyl}amino)imidazo[1,2-a]pyrimido[5,4-e]pyrimidin-5(6H)-one]",< 10 nM
7,"CN(C)C1CCC(OC(=O)c2ccc(Nc3ncc4c(=O)n(-c5c(Cl)cccc5Cl)c5nccn5c4n3)cc2)CC1 (stereo not drawn) [Example 193, 4-(dimethylamino)cyclohexyl 4-{[6-(2,6-dichlorophenyl)-5-oxo-5,6-dihydroimidazo[1,2-a]pyrimido[5,4-e]pyrimidin-2-yl]amino}benzoate]",< 10 nM
8,"CS(=O)(=O)N1Cc2cc(Nc3ncc4c(=O)n(-c5c(F)cccc5Cl)c5nccn5c4n3)ccc2C2(CC2)C1 [Example 243, 6-(2-chloro-6-fluorophenyl)-2-{[2′-(methylsulfonyl)-2′,3′-dihydro-1′H-spiro[cyclopropane-1,4′-isoquinolin]-7′-yl]amino}imidazo[1,2-a]pyrimido[5,4-e]pyrimidin-5(6H)-one]",< 10 nM
9,"O=c1c2cnc(Nc3ccc(N4CCC[C@H]4C(F)(F)F)cc3)nc2n2ccnc2n1-c1ccccc1Cl [Example 352, 6-(2-chlorophenyl)-2-({4-[(2S)-2-(trifluoromethyl)pyrrolidin-1-yl]phenyl}amino)imidazo[1,2-a]pyrimido[5,4-e]pyrimidin-5(6H)-one]",10 to 100 nM
10,"CN(C)CCN(C)c1ccc(Nc2ncc3c(=O)n(-c4ccccc4Cl)c4nccn4c3n2)cc1 [Example 263, 6-(2-chlorophenyl)-2-[(4-{[2-(dimethylamino)ethyl](methyl)amino}phenyl)amino]imidazo[1,2-a]pyrimido[5,4-e]pyrimidin-5(6H)-one]",< 10 nM
11,"CC(C)c1cc(Nc2ncc3c(=O)n(-c4c(Cl)cccc4Cl)c4nccn4c3n2)ccc1N1CCN(C)CC1 [Example 176, 6-(2,6-dichlorophenyl)-2-{[4-(4-methylpiperazin-1-yl)-3-(propan-2-yl)phenyl]amino}imidazo[1,2-a]pyrimido[5,4-e]pyrimidin-5(6H)-one]",< 10 nM
12,"CN(C)[C@@H]1CCN(c2ccc(Nc3ncc4c(=O)n(-c5ccccc5Cl)c5nccn5c4n3)cc2)C1 [Example 230, 6-(2-chlorophenyl)-2-({4-[(3R)-3-(dimethylamino)pyrrolidin-1-yl]phenyl}amino)imidazo[1,2-a]pyrimido[5,4-e]pyrimidin-5(6H)-one]",< 10 nM
13,"CC1(C)CN(S(C)(=O)=O)Cc2cc(Nc3ncc4c(=O)n(-c5c(F)cccc5Cl)c5nccn5c4n3)ccc21 [Example 312, 6-(2-chloro-6-fluorophenyl)-2-{[4,4-dimethyl-2-(methylsulfonyl)-1,2,3,4-tetrahydroisoquinolin-7-yl]amino}imidazo[1,2-a]pyrimido[5,4-e]pyrimidin-5(6H)-one]",< 10 nM
14,"O=c1c2cnc(Nc3ccc4ncsc4c3)nc2n2ccnc2n1-c1c(Cl)cccc1Cl [Example 182, 2-(1,3-benzothiazol-6-ylamino)-6-(2,6-dichlorophenyl)imidazo[1,2-a]pyrimido[5,4-e]pyrimidin-5(6H)-one]",< 10 nM
15,"Cc1cc(Nc2ncc3c(=O)n(-c4c(Cl)cccc4Cl)c4nccn4c3n2)ccc1N1CCCN(C)CC1 [Example 74, 6-(2,6-dichlorophenyl)-2-{[3-methyl-4-(4-methyl-1,4-diazepan-1-yl)phenyl]amino}imidazo[1,2-a]pyrimido[5,4-e]pyrimidin-5(6H)-one]",< 10 nM
16,"O=C(C1CC1)N1Cc2cc(Nc3ncc4c(=O)n(-c5c(Cl)cc(F)cc5Cl)c5nccn5c4n3)ccc2C2(CC2)C1 [Example 171, 2-{[2′-(cyclopropylcarbonyl)-2′,3′-dihydro-1′H-spiro[cyclopropane-1,4′-isoquinolin]-7′-yl]amino}-6-(2,6-dichloro-4-fluorophenyl)imidazo[1,2-a]pyrimido[5,4-e]pyrimidin-5(6H)-one]",< 10 nM
17,"O=c1c2cnc(Nc3ccc(N4CCC(N5CCCC5)CC4)cc3)nc2n2ccnc2n1-c1ccccc1Cl [Example 190, 6-(2-chlorophenyl)-2-({4-[4-(pyrrolidin-1-yl)piperidin-1-yl]phenyl}amino)imidazo[1,2-a]pyrimido[5,4-e]pyrimidin-5(6H)-one]",< 10 nM
18,"CN1Cc2cc(Nc3ncc4c(=O)n(-c5c(Cl)cc(F)cc5Cl)c5nccn5c4n3)ccc2C2(CC2)C1 [Example 125, 6-(2,6-dichloro-4-fluorophenyl)-2-[(2′-methyl-2′,3′-dihydro-1′H-spiro[cyclopropane-1,4′-isoquinolin]-7′-yl)amino]imidazo[1,2-a]pyrimido[5,4-e]pyrimidin-5(6H)-one]",< 10 nM
19,"CN1Cc2cc(Nc3ncc4c(=O)n(-c5c(Cl)cccc5Cl)c5nccn5c4n3)ccc2C1(C)C [Example 178, 6-(2,6-dichlorophenyl)-2-[(1,1,2-trimethyl-2,3-dihydro-1H-isoindol-5-yl)amino]imidazo[1,2-a]pyrimido[5,4-e]pyrimidin-5(6H)-one]",< 10 nM
20,"CCN(CC)CCCOc1ccc(Nc2ncc3c(=O)n(-c4c(Cl)cccc4Cl)c4nccn4c3n2)cc1F [Example 149, 6-(2,6-dichlorophenyl)-2-({4-[3-(diethylamino)propoxy]-3-fluorophenyl}amino)imidazo[1,2-a]pyrimido[5,4-e]pyrimidin-5(6H)-one]",< 10 nM
21,"O=c1c2cnc(Nc3ccc(N4CCCCC4)cc3)nc2n2ccnc2n1-c1ccccc1Cl [Example 8, 6-(2-chlorophenyl)-2-{[4-(piperidin-1-yl)phenyl]amino}imidazo[1,2-a]pyrimido[5,4-e]pyrimidin-5(6H)-one]",< 10 nM
22,"O=c1c2cnc(Nc3ccc(C4CCCN4)cc3)nc2n2ccnc2n1-c1c(Cl)cccc1Cl (stereo not drawn) [Example 134, 6-(2,6-dichlorophenyl)-2-{[4-(pyrrolidin-2-yl)phenyl]amino}imidazo[1,2-a]pyrimido[5,4-e]pyrimidin-5(6H)-one]",< 10 nM
23,"O=C(N[C@H]1CC[C@H](O)CC1)c1ccc(Nc2ncc3c(=O)n(-c4ccccc4Cl)c4nccn4c3n2)cc1 [Example 46, 4-{[6-(2-chlorophenyl)-5-oxo-5,6-dihydroimidazo[1,2-a]pyrimido[5,4-e]pyrimidin-2-yl]amino}-N-(trans-4-hydroxycyclohexyl)benzamide]",10 to 100 nM
24,"O=c1c2cnc(Nc3ccccc3)nc2n2ccnc2n1-c1cccc(O)c1 [Example 68, 6-(3-hydroxyphenyl)-2-(phenylamino)imidazo[1,2-a]pyrimido[5,4-e]pyrimidin-5(6H)-one]",10 to 100 nM
25,"O=c1c2cnc(Nc3ccc(C4CCCCC4)cc3)nc2n2ccnc2n1-c1c(Cl)cccc1Cl [Example 167, 2-[(4-cyclohexylphenyl)amino]-6-(2,6-dichlorophenyl)imidazo[1,2-a]pyrimido[5,4-e]pyrimidin-5(6H)-one]",10 to 100 nM
26,"CC1(C)CN(Cc2ccsc2)Cc2cc(Nc3ncc4c(=O)n(-c5ccccc5Cl)c5nccn5c4n3)ccc21 [Example 132, 6-(2-chlorophenyl)-2-{[4,4-dimethyl-2-(thiophen-3-ylmethyl)-1,2,3,4-tetrahydroisoquinolin-7-yl]amino}imidazo[1,2-a]pyrimido[5,4-e]pyrimidin-5(6H)-one]",< 10 nM
27,"CC1(C)CN(CCCC(F)(F)F)Cc2cc(Nc3ncc4c(=O)n(-c5ccccc5Cl)c5nccn5c4n3)ccc21 [Example 145, 6-(2-chlorophenyl)-2-{[4,4-dimethyl-2-(4,4,4-trifluorobutyl)-1,2,3,4-tetrahydroisoquinolin-7-yl]amino}imidazo[1,2-a]pyrimido[5,4-e]pyrimidin-5(6H)-one]",< 10 nM
28,"Cc1cc(Nc2ncc3c(=O)n(-c4c(Cl)cc(F)cc4Cl)c4nccn4c3n2)ccc1N1CCCN(C)CC1 [Example 124, 6-(2,6-dichloro-4-fluorophenyl)-2-{[3-methyl-4-(4-methyl-1,4-diazepan-1-yl)phenyl]amino}imidazo[1,2-a]pyrimido[5,4-e]pyrimidin-5(6H)-one]",< 10 nM
29,"O=c1c2cnc(Nc3ccc(N4CCOCC4)cc3)nc2n2ccnc2n1-c1ccccc1Cl [Example 10, 6-(2-chlorophenyl)-2-{[4-(morpholin-4-yl)phenyl]amino}imidazo[1,2-a]pyrimido[5,4-e]pyrimidin-5(6H)-one]",< 10 nM
30,"O=c1c2cnc(Nc3cccc(OCCCN4CCCCC4)c3)nc2n2ccnc2n1-c1ccccc1Cl [Example 83, 6-(2-chlorophenyl)-2-({3-[3-(piperidin-1-yl)propoxy]phenyl}amino)imidazo[1,2-a]pyrimido[5,4-e]pyrimidin-5(6H)-one]",10 to 100 nM
